How the values were obtained:
Format in all cases: cell-based
[1] = test system: Ba/F3-EGFR ins. SVD cells; test: Cell proliferation suppression test (CellTiter-Glo, GI50), Ba/F3-EGFR ins. SVD; details: Mus musculus, 72 h, 3 days, N=4
How it was run: (§1)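 Ba/F3 lines in RPMI 1640/10% FBS without puromycin; IL-3 5 ng/mL added for Mock, EGF 100 ng/mL for EGFR WT. Cells treated 3 days at 37 °C, 5% CO2; ATP measured by CellTiter-Glo 2.0 on day 0 and day 3 (N=4). GI50 is the concentration inhibiting 50% of day 0–3 proliferation.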

[2] = test system: Ba/F3-Mock cells; test: Cell proliferation suppression test (CellTiter-Glo, GI50), Ba/F3-Mock; details: Mus musculus, BaF3, 72 h, 5 ng/mL IL-3, 3 days, N=4
How it was run: as §1

[3] = test system: Ba/F3-EGFR WT cells; test: Cell proliferation suppression test (CellTiter-Glo, GI50), Ba/F3-EGFR WT; details: Mus musculus, 72 h, 100 ng/mL EGF, 3 days, N=4
How it was run: as §1

[4] = test system: Ba/F3-EGFR ins. ASV cells; test: Cell proliferation suppression test (CellTiter-Glo, GI50), Ba/F3-EGFR ins. ASV; details: Mus musculus, 72 h, 3 days, N=4
How it was run: as §1

GI50 [1] [nM] | GI50 [3] [nM] | GI50 [4] [nM] | Structure (SMILES) | GI50 [2] [nM]
12.4 | 180 | 18.8 | [2H]C([2H])([2H])C(NC(=O)n1ccc(Oc2ccc(Nc3ncnc4cc(OC)c(OC5CCN(C(=O)C=C)CC5)cc34)c(F)c2)n1)(C([2H])([2H])[2H])C([2H])([2H])[2H] [Example 25, 3-{3-Fluoro-4-[(7-methoxy-6-{[1-(prop-2-enoyl)piperidin-4-yl]oxy}quinazolin-4-yl)amino]phenoxy}-N-[2-(^2H3)methyl(^2H6)propan-2-yl]-1H-pyrazole-1-carboxamide] | > 10000
12.1 | 290 | 12.4 | C=CC(=O)N1CCC(Oc2cc3c(Nc4ccc(Oc5ccn(-c6ccc(C)nc6)n5)cc4F)ncnc3cc2OC)CC1 [Example 28, 1-(4-{[4-(2-Fluoro-4-{[1-(6-methylpyridin-3-yl)-1H-pyrazol-3-yl]oxy}anilino)-7-methoxyquinazolin-6-yl]oxy}piperidin-1-yl)prop-2-en-1-one] | 8370
13.7 | 123 | 13.9 | C=CC(=O)N1CCC(Oc2cc3c(Nc4ccc(Oc5cccc(-c6cn(C)nn6)c5)cc4F)ncnc3cc2OC)CC1 [Example 2] | 9530
